This is an account of results in US11596620B2, “Formulations with reduced oxidation” (Genentech, Inc., priority 2013, dated 2023).

Series [1] relates to mAb1. Nature of the series: Light stress of mAb1 formulation (eight hours at 250 W/m^2), papain digest RP-HPLC. The conditions noted are these: mAb1 5 mg/mL, eight hours of light at 250 W/m^2. Format: physicochemical, human. How it is done: L-tryptophan (L-Trp), an antioxidant used in protein formulations, has been recently shown to be photosensitive (Igarashi et al., Anal Sci 23(8):943-8 (2007)) and to have the ability to produce H2O2 upon light exposure. […] Control vials were wrapped in aluminum foil and treated similarly. After light exposure, solutions were prepared for analysis by reverse-phase HPLC. […] Following incubation, 900 μL of the solution was combined with 100 μL of 1 M dithiothreitol (DTT) and incubated for another thirty minutes at 37° C. Samples were then run on an Agilent, Inc. 1100/1200 HPLC system (Santa Clara, Calif.) equipped with UV detection at 280 nm in conjunction with a Varian, Inc. Pursuit 3 μm, 2 mm ID×250 mm diphenyl column (Palo Alto, Calif.). Mobile Phase A was 0.1% TFA in water. Mobile Phase B was 0.1% TFA in acetonitrile. The mobile phase gradient increased linearly from 34% B at 0 minutes to 43% B at 50.0 minutes, then to 95% B at 50.1 minutes. The gradient remained at 95% B until 60.1 minutes, and then decreased linearly from 95% B to 34% B between 60.1 and 60.2 minutes. The gradient remained at 34% B until the end of the cycle at 80.2 minutes. The column temperature was 65° C., total flow rate was 0.2 mL/min, and injection volume of each sample was 6 μL. Chromatograms were then integrated for quantification of oxidation.

Series [2] is described as follows: H2O2 generation by free L-Trp upon light exposure, Amplex assay. Format: physicochemical. How it is done: It was previously reported that L-Trp produced H2O2 via superoxide ion and in a sub-stoichiometric fashion while antibodies under similar conditions were producing catalytic amounts (Wentworth et al., Science 293(5536):1806-11 (2001); McCormick et al., Journal of the American Chemical Society 100:312-313 (1978)). To test the susceptibility of free L-Trp under pharmaceutically relevant conditions, such as under both ICH and ambient light conditions, formulations comprising 0.32 mM to 7.5 mM of L-Trp were exposed for 3 hours at 250 W/m^2 UV light and about 150 k lux visible light. Samples were taken and analyzed immediately via the Amplex assay to detect the amount of H2O2 generated under these conditions. […] When L-Trp was incubated with a combination of 50 mM NaN3 and 150 U superoxide dismutase (SOD) or SOD alone, significant amounts of H2O2 were still detected in the samples not containing NaN3.

The subject of series [3] is mAb1. Nature of the series: mAb1 Fenton stress study (H2O2 + Fe), RP-HPLC. In kind it is physicochemical, human. Particulars: 10 ppm H2O2 and 0.2 mM Fe(III), 40° C. for 3 hours; antioxidant 1 mM. As for the experimental part: Antioxidants were added at a final concentration of 1 mM. […] After incubation, each reaction was quenched by addition of 100 mM L-Met and then prepared for analysis by reverse-phase HPLC as described above.
The Fenton reaction, using a mixture of H2O2 and Fe ions, generates oxidation through a metal catalyzed, hydroxyl radical reaction (Prousek et al., Pure and Applied Chemistry 79(12):2325-2338 (2007)). This reaction generated Fab, i.e. tryptophan, oxidation in mAb1. The reaction was also carried out in the presence of select antioxidants that were useful against both AAPH and light induced oxidation as reported above. Data related to the antioxidant properties against Fenton mediated reaction were analyzed using the RP-HPLC assay as described above. The Fenton reaction used 10 ppm of H2O2 and 0.2 mM of Fe(III). The reaction was incubated at 40° C. for 3 hours, quenched with 100 mM L-Met and analyzed using RP-HPLC after papain digest. All samples were the average of three separate vials, and mAb1 control (Ref Mat) was one vial with five independent injections on the HPLC. […] In regards to protection against Fc oxidation, the tested excipients (other than salicylic acid) performed slightly better than L-Trp.

Series [4] concerns mAb1. Nature of the series: Ambient light exposure of 50 mg/mL mAb1 formulations containing L-Trp (Amplex assay, RP-HPLC). In kind it is physicochemical, human. An excerpt:
While confirming the photosensitivity of free L-Trp under ICH light conditions, the effect of ambient light that was typically seen in laboratories was studied. Measurements using a DLM1 digital light meter in various labs indicated an average of 300 lux on a lab benchtop (with white fluorescent lighting), an average of 3000 lux in a laminar flow hood (with white fluorescent lighting) and about 10000 lux for a windowsill exposed to southeast sunlight. […] Peroxide production increased with both luminosity (300, 3000, and 10000 lux) and time (1, 3, and 7 days). […] These levels of light exposure and time were determined to be pharmaceutically relevant for drug substance handling under ambient light and temperature before fill/finish operations and potentially while inspecting drug product vials.

In series [5] the test system is mAb1. Nature of the series: mAb1 light stress study (16 hours at 250 W/m^2), RP-HPLC. Format: physicochemical, human. Particulars: 16 hours of light at 250 W/m^2. As for the experimental part:
The fragments were reduced with DTT, and then separated and identified via Liquid Chromatography-Mass Spectrometry (LC-MS). […] Comparison of area integrated under the oxidized and native peaks was used to quantify HC Fab and Fc oxidation. […] By using the papain digest RP-HPLC method in the present study it was possible to investigate Trp residue oxidation by quantifying HC Fab oxidation, and Met residue oxidation by quantifying HC Fc oxidation.
Antioxidants were added at 1 mM. Glass vials containing these formulations were exposed to 250 W/m^2 light in an Atlas SunTest CPS+ Xenon Test Instrument (Chicago, Ill.). Control vials were wrapped in aluminum foil and treated similarly. After light exposure, solutions were prepared for analysis by reverse-phase HPLC as described above.

Series [6] in a line: Cyclic voltammetry (CV) screening assay, oxidation potential. Format: physicochemical. As for the experimental part:
The oxidation/reduction characteristics of the compounds were investigated. Several compounds, including L-Trp and derivatives, were evaluated for the protection of Trp oxidation in proteins using cyclic voltammetry (CV) and rank ordered based on their oxidation potentials (Table 2). Specifically, the candidate antioxidants were dissolved in deionized water and then added to a 0.2 M lithium perchlorate electrolyte solution. […] Solutions were scanned from −0.10 V to +1.50 V at a scan rate of either 100 or 500 mV/sec. The analytical cell was purged for four minutes with nitrogen before scanning of each antioxidant solution. The input was a linear scan of the potential of a working electrode, and the output was measurement of the resulting current. […] Redox reactions were characterized by sharp increases or decreases in current (peaks). The potential at which an oxidation reaction occurred was referred to as the anodic peak potential (or oxidation potential), and the potential at which a reduction occurred was referred to as is the cathodic peak (or reduction) potential.

SMILES strings stand for the structures.

With `N[C@@H](Cc1c[nH]c2ccccc12)C(=O)O` [L-Trp, L-tryptophan], the Fc oxidation result in the series with mAb1 [1] (1 mM L-Trp, reference material and foil control about 8%) is “over 20%”. The Fab oxidation in the series with mAb1 [1] (no excipient or 1 mM L-Trp, reference material and foil control about 2%) is approximately 9%. Further, in series [2] (0.32 mM to 7.5 mM L-Trp, 3 hours at 250 W/m^2 UV light and about 150 k lux visible light), the “H2O2 generated upon light exposure” value is listed as “large quantity of H2O2”. Besides, in series [2] (3 hours at 250 W/m^2 UV light, 50 mM sodium azide), the “H2O2 generation in the presence of 50 mM sodium azide” value is recorded as “reduced greatly”. For the same molecule, the “Protection of Fab oxidation with respect to the no excipient case” value with mAb1 [3] is recorded as “about 25%”. The “Heavy chain Fab oxidation (W53) under ambient light, in words” value in the series on mAb1 [4] (50 mg/mL mAb1 with L-Trp, increasing luminosity) is reported as “increased heavy chain Fab oxidation”. Besides, the “% Fc oxidation in mAb1” value in the series on mAb1 [4] (300 lux, 50 mg/mL mAb1 with L-Trp) came out at 5%; in the series on mAb1 [4] (10000 lux, 50 mg/mL mAb1 with L-Trp), 40%. The “Hydrogen peroxide production under ambient light” value in the series with mAb1 [4] (L-Trp in formulation buffers containing 50 mg/mL mAb1, 300, 3000, 10000 lux, 1, 3, 7 days) is “micromolar range”. Further, the “Fc oxidation as multiple of the control level” value in the series with mAb1 [5] (1 mM L-Trp) is 7 times. Further, in the series with mAb1 [5] (excipient 1 mM or none), the “Fab oxidation increase over the control level (mAb1 Ref Mat)” value was “over 11 fold”. Further, the “Oxidation Potential” value in series [6] (anodic peak potential, glassy carbon working electrode, 0.2M lithium perchlorate) was found to be 0.938 V vs Ag/AgCl; in series [6] (cyclic voltammetry, 0.2 M lithium perchlorate), 0.938 V vs Ag/AgCl.
